Experimental data taken from patent publication US10786577B2, “Pharmaceutical composition comprising glutatione disulfide and glutathione disulfide S-oxide” (OBSCHESTVO S OGRANICHENNOY OTVETSTVENNOSTJU “IVA FARM”, priority 2017, dated 2020).

Experiments:
[1] = tested on: glucose-6-phosphate dehydrogenase (XE 1.1.1.49); assay: Liver enzyme activity in rats with cyclophosphan hepatotoxicity; settings: rat liver cytosolic fraction; cyclophosphan 20 mg/kg for 10 days; test substance intraperitoneally 10 mg/kg (compound 2: 0.1 mg/kg)
[2] = tested on: glutathione-S-transferase (XE 2.5.1.18); assay: as above; settings: rat liver cytosolic fraction; cyclophosphan 20 mg/kg for 10 days; test substance intraperitoneally 10 mg/kg (compound 2: 0.1 mg/kg)
[3] = tested on: glutathione peroxidase (XE 1.11.1.9); assay: as above; settings: rat liver cytosolic fraction; cyclophosphan 20 mg/kg for 10 days; test substance intraperitoneally 10 mg/kg (compound 2: 0.1 mg/kg)
[4] = tested on: glutathione reductase (XE 1.6.4.2); assay: as above; settings: rat liver cytosolic fraction; cyclophosphan 20 mg/kg for 10 days; test substance intraperitoneally 10 mg/kg (compound 2: 0.1 mg/kg)
reduced glutathione = assay: Liver reduced glutathione in rats with cyclophosphan hepatotoxicity; settings: rat liver; cyclophosphan 20 mg/kg for 10 days; test substance intraperitoneally 10 mg/kg (compound 2: 0.1 mg/kg)
[5] = tested on: cultured resident peritoneal rat macrophages; assay: Intracellular calcium concentration [Ca2+]i with Fura-2AM in macrophages; format: cell-based

| SMILES | G-6-PDG [1] | GST [2] | GP [3] | GR [4] | GSH (reduced glutathione) [μmol/g protein] | [Ca2+]i peak ([5]; 200 μM extracellular ATP, macrophages in normal saline, basal level 75±18 nM) [nM] | average [Ca2+]i during plateau phase ([5]; 4 minutes after the addition of ATP (200 μM), normal saline) [nM] |
| --- | --- | --- | --- | --- | --- | --- | --- |
| NC(CCC(=O)NC(CS[S+]([O-])CC(NC(=O)CCC(N)C(=O)O)C(=O)NCC(=O)O)C(=O)NCC(=O)O)C(=O)O (stereo not shown) [Example 1, glutathione disulfide S-oxide] | 98.1 ± 13.3 μmol/(min × g protein | 1857 ± 120 μmol/(min × g protein | 27.9 ± 2.2 μmol/(min × g protein | 117.8 ± 12.6 μmol/(min × g protein | 11.21 ± 0.56 | – | – |
| Nc1ncnc2c1ncn2[C@@H]1O[C@H](COP(=O)(O)OP(=O)(O)OP(=O)(O)O)[C@@H](O)[C@H]1O [ATP] | – | – | – | – | – | 820 ± 105 | 460 ± 115 |
